# Laboratory results: ChEMBL document CHEMBL5346940, “Design, synthesis and biological evaluation of dual Topo II/HDAC inhibitors bearing pyrimido[5,4-b]indole and pyrazolo[3,4-d]pyrimidine motifs” (Eur J Med Chem, 2023)
# Activity calls are given as the source filed them. The rule behind the calls is not given here.
# Legend:
# [1] = biological target: T1, DNA topoisomerase 1 (Homo sapiens) (UniProt P11387); assay: Inhibition of human topoisomerase 1 assessed as relaxation of pBR322 plasmid DNA at 100 uM measured after 30 mins by agarose gel electrophoresis analysis
# T1 sequence (whole entry): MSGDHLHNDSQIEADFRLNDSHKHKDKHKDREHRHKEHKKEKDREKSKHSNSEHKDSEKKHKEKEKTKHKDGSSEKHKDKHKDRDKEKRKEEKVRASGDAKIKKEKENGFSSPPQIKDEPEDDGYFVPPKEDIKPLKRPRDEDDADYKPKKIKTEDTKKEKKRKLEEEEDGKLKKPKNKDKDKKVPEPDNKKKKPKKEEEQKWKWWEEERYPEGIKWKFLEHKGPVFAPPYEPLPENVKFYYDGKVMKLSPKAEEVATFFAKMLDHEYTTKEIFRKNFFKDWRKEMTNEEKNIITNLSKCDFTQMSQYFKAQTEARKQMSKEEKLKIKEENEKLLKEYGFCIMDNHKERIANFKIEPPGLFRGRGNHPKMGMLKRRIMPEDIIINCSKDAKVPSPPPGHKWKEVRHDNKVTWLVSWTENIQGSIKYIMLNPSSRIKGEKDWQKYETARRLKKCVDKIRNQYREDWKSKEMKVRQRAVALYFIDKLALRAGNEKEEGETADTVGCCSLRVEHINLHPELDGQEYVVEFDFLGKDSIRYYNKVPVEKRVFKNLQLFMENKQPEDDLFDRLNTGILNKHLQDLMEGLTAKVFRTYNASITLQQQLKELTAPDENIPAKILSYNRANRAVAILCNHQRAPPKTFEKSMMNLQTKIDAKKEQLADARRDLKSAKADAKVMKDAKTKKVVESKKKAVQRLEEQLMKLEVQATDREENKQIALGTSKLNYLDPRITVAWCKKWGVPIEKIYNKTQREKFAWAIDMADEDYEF
# [2] = test system: MCF7; assay: Induction of apoptosis in human MCF7 cells assessed as early apoptotic cells at 20 uM incubated for 48 hrs by AnnexinV-FITC/propidium iodide staining based flow cytometry analysis (reference value: 0.28 %); type: functional
# [3] = test system: MCF7; assay: Induction of apoptosis in human MCF7 cells assessed as viable cells at 20 uM incubated for 48 hrs by AnnexinV-FITC/propidium iodide staining based flow cytometry analysis (reference value: 99.2 %); type: functional; conditions: read-out: Activity
# [4] = biological target: Histone deacetylase; assay: Inhibition of HDAC in human HeLa nuclear extract measured after 30 mins by fluorescence based assay; type: cell-free
# [5] = test system: MCF7; assay: Inhibition of cell migration in human MCF7 cells assessed as reduction in cell migration at 5 uM measured for 48 hrs by wound healing assay based microscopic analysis (reference value: 70.25%); type: functional
# [6] = test system: MCF7; assay: Induction of apoptosis in human MCF7 cells assessed as viable cells at 5 uM incubated for 48 hrs by AnnexinV-FITC/propidium iodide staining based flow cytometry analysis (reference value: 99.2 %); type: functional; conditions: read-out: Activity
# [7] = test system: MCF7; assay: Induction of apoptosis in human MCF7 cells assessed as late apoptotic cells at 20 uM incubated for 48 hrs by AnnexinV-FITC/propidium iodide staining based flow cytometry analysis (reference value: 0.015 %); type: functional
# [8] = test system: MCF7; assay: Induction of apoptosis in human MCF7 cells assessed as viable cells at 10 uM incubated for 48 hrs by AnnexinV-FITC/propidium iodide staining based flow cytometry analysis (reference value: 99.2 %); type: functional; conditions: read-out: Activity
# [9] = test system: MCF7; assay: Induction of apoptosis in human MCF7 cells assessed as early apoptotic cells at 10 uM incubated for 48 hrs by AnnexinV-FITC/propidium iodide staining based flow cytometry analysis (reference value: 0.28 %); type: functional
# [10] = test system: MCF7; assay: Induction of apoptosis in human MCF7 cells assessed as cell shrinkage at 10 uM incubated for 48 hrs by AO/EB staining based fluorescence microscopic analysis; type: functional
# [11] = test system: MCF7; assay: Induction of apoptosis in human MCF7 cells assessed as necrotic cells at 20 uM incubated for 48 hrs by AnnexinV-FITC/propidium iodide staining based flow cytometry analysis (reference value: 0.55 %); type: functional
# [12] = biological target: DNA topoisomerase 2-alpha (Homo sapiens) (UniProt P11388); assay: Inhibition of human topoisomerase 2 assessed as relaxation of pBR322 plasmid DNA at 100 uM measured after 30 mins by ethidium bromide staining based UV transilluminator analysis
# Chain of DNA topoisomerase 2-alpha (Homo sapiens) (P11388 whole entry): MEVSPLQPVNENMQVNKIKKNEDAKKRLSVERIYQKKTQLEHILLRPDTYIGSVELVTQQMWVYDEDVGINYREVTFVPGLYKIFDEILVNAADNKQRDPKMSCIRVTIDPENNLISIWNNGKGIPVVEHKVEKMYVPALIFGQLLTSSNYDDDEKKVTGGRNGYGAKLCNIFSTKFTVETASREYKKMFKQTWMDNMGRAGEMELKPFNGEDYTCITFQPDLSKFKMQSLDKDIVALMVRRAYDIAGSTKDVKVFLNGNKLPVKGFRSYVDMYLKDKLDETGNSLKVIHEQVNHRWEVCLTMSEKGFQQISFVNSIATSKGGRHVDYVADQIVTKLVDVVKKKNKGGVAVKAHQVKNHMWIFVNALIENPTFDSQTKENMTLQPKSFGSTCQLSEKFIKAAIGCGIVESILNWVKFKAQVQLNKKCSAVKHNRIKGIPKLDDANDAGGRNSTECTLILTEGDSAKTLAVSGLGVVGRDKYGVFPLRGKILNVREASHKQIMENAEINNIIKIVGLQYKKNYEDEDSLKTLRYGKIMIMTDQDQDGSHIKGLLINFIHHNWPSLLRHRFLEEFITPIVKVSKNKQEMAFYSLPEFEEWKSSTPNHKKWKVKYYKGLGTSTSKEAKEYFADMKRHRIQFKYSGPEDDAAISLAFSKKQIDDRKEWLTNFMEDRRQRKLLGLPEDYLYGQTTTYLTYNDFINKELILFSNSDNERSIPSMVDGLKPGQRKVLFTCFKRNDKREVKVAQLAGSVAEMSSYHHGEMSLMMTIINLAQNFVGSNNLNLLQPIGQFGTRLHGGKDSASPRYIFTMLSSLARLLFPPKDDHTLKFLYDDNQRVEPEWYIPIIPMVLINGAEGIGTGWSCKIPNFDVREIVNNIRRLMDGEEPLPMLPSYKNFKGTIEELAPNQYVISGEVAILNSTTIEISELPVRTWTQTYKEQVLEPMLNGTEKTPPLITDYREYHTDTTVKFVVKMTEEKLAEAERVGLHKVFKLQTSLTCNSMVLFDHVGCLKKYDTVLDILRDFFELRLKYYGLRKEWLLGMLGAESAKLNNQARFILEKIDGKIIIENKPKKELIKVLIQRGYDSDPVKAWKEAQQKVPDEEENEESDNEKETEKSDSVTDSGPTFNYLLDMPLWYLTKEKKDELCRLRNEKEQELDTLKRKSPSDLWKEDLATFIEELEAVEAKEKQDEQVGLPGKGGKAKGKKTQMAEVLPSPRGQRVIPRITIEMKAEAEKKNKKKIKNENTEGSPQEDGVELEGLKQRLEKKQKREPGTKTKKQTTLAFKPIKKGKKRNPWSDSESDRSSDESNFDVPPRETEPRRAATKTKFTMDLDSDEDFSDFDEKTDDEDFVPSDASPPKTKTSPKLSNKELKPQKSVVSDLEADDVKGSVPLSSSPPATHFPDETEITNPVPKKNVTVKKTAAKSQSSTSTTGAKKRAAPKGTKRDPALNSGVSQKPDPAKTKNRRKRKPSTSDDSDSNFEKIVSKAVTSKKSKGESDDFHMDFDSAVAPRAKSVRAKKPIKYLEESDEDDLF
# [13] = test system: NIH3T3; assay: Antiproliferative activity against mouse 3T3 cells assessed as reduction in cell viability at 100 uM measured for 48 hrs by MTT assay relative to control; type: toxicity, cell-based; conditions: nih3t3, 48 h
# [14] = test system: MCF7; assay: Induction of apoptosis in human MCF7 cells assessed as necrotic cells at 10 uM incubated for 48 hrs by AnnexinV-FITC/propidium iodide staining based flow cytometry analysis (reference value: 0.55 %); type: functional
# [15] = test system: MCF7; assay: Induction of apoptosis in human MCF7 cells assessed as late apoptotic cells at 5 uM incubated for 48 hrs by AnnexinV-FITC/propidium iodide staining based flow cytometry analysis (reference value: 0.015 %); type: functional
# [16] = test system: MCF7; assay: Induction of apoptosis in human MCF7 cells assessed as early apoptotic cells at 5 uM incubated for 48 hrs by AnnexinV-FITC/propidium iodide staining based flow cytometry analysis (reference value: 0.28 %); type: functional
# [17] = biological target: DNA topoisomerase 2-alpha (Homo sapiens) (UniProt P11388); assay: Poison activity at human topoisomerase 2 assessed as stabilization of enzyme-DNA cleavage complex by measuring linear DNA formation at 100 uM incubated for 6 mins by EtBr staining based UV light analysis
# [18] = test system: MCF7; assay: Induction of apoptosis in human MCF7 cells assessed as necrotic cells at 5 uM incubated for 48 hrs by AnnexinV-FITC/propidium iodide staining based flow cytometry analysis (reference value: 0.55 %); type: functional
# [19] = test system: U-937; assay: Antiproliferative activity against human U-937 cells assessed as reduction in cell viability measured for 48 hrs by MTT assay; type: functional, cell-based; conditions: U-937, 48 h
# [20] = test system: MCF7; assay: Induction of apoptosis in human MCF7 cells assessed as cell depletion at 10 uM incubated for 48 hrs by AO/EB staining based fluorescence microscopic analysis; type: functional
# [21] = test system: MCF7; assay: cells; type: functional; conditions: Homo sapiens, time 48 hrs
# Description: Inhibition of cell migration in human MCF7 cells assessed as reduction in cell migration at 2.5 uM measured for 48 hrs by wound healing assay based microscopic analysis (Rvb = 70.25%)
# [22] = test system: MGC-803; assay: Antiproliferative activity against human MGC-803 cells assessed as reduction in cell viability measured for 48 hrs by MTT assay; type: functional, cell-based; conditions: MGC-803, 48 h
# [23] = test system: MCF7; assay: Induction of apoptosis in human MCF7 cells assessed as late apoptotic cells at 10 uM incubated for 48 hrs by AnnexinV-FITC/propidium iodide staining based flow cytometry analysis (reference value: 0.015 %); type: functional
# [24] = test system: MCF7; assay: Induction of apoptosis in human MCF7 cells assessed as appearance of rounded cells at 10 uM incubated for 48 hrs by AO/EB staining based fluorescence microscopic analysis; type: functional, cell-based
# [25] = test system: MCF7; assay: cells; type: functional; conditions: Homo sapiens, time 48 hrs; remark: listed apart in the source
# Description: Inhibition of cell migration in human MCF7 cells assessed as reduction in cell migration at 1 uM measured for 48 hrs by wound healing assay based microscopic analysis (Rvb = 70.25%)
# [26] = test system: MCF7; assay: Antiproliferative activity against human MCF7 cells assessed as reduction in cell viability measured for 48 hrs by MTT assay; type: functional, cell-based; conditions: MCF7, 48 h
inhibition (active/inactive call) [1],IC50 [4] [µM],topoisomerase II inhibition (active/inactive) [12],IC50 [19] [µM],Compound,Activity [2] [%],viability at 20 µM [3] [%],inhibition at 5 µM [5] [%],viability at 5 µM [6] [%],Activity [7] [%],viability at 10 µM [8] [%],Activity [9] [%],Activity [10],Activity [11] [%],Activity [13] [%],Activity [14] [%],Activity [15] [%],Activity [16] [%],Activity [18] [%],Activity [20],inhibition at 2.5 µM [21] [%],further results
Active,4.67,Active,28.5,O=C(CCCCSc1nc2c([nH]c3ccccc32)c(=O)[nH]1)NO,29,45.5,19.3,83.4,24.9,60.6,26.6,Active,0.54,7.62,0.67,5.88,10.4,0.3,Active,32.3,Activity [17]: Active; IC50 [22]: 9.59 µM; Activity [23]: 12.1%; Activity [24]: Active; inhibition at 1 µM [25]: 58.5%
Active,5.9,Active,24.6,CCn1c(SCCCCC(=O)NO)nc2c([nH]c3ccccc32)c1=O,28.8,53.7,29.7,93.4,17.1,78.7,14.1,Active,0.48,38.7,0.3,1.16,4.86,0.6,Active,56.4,IC50 [26]: 18.3 µM; IC50 [22]: 12.3 µM; Activity [23]: 6.9%; Activity [24]: Active; inhibition at 1 µM [25]: 65.4%
